{"source": "paper PMC11337105", "about": "“Identification of 2-(N-aryl-1,2,3-triazol-4-yl) quinoline derivatives as antitubercular agents endowed with InhA inhibitory activity” (Frontiers in Chemistry, 2024)", "origin": "cited, not measured here", "system": "MTB", "conditions": "MTB H37Rv; ref Boechat et al., 2011; cited from earlier work", "data": [{"smiles": "O=C(N/N=C/c1cn(-c2ccc(Cl)cc2)nn1)c1ccncc1", "note": "[compound VI]", "values": [{"measurement": "MIC, MTB H37Rv strain", "result": 0.62, "unit": "µg/mL"}]}]}
